From patent US5684039A, “Chroman-2-ylmethylamino derivatives” (American Home Products Corporation, priority 1996, dated 1997)

Columns and labels:
α1 = α1 (no method described); assay type: binding
dopamine autoreceptor = molecular target: T1, dopamine autoreceptor (Rattus norvegicus, UniProt P61169); assay: 3H-quinpirole (Quin.) binding, affinity for the dopamine autoreceptor, homogenized rat striatal brain tissue
T1 construct: homogenized rat striatal brain tissue; from tissue; host or cells: rat striatal brain tissue, homogenized
T1 sequence (P61169 whole entry): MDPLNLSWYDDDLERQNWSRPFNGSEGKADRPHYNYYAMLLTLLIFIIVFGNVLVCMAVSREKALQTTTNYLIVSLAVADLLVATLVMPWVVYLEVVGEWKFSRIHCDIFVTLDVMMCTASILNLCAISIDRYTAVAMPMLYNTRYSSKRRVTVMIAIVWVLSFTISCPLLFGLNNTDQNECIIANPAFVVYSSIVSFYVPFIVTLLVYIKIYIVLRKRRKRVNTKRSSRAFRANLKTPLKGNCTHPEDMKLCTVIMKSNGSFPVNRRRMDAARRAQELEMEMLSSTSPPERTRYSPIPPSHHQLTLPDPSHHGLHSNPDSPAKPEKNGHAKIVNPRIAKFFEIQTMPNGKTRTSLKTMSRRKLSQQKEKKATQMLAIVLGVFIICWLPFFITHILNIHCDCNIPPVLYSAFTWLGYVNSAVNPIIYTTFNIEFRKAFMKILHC

dopamine D2 receptor [1] = molecular target: T2, dopamine D2 receptor (Rattus norvegicus, UniProt P61169); assay: Ratio Ant/Ag (intrinsic activity from low-affinity/high-affinity agonist state); assay type: binding; settings: Spiper. IC50 / Quin. IC50
T2 sequence (P61169 whole entry): as above
Source text: Efforts to induce antipsychotic activity with dopamine autoreceptor agonists have been successful (Corsini et al. Adv. Biochem. […] […] et at. […] A method for determining intrinsic activity at the dopamine D2 receptor was recently reported [Lahti et al., Mol. Pharm. […] Intrinsic activity is predicted using the ratio of the "low-affinity agonist" (LowAg) state of the receptor and the "high-affinity agonist" ([…]) state of the receptor, […]. These ratios correlate with the agonist, partial agonist, and antagonist activities of a given compound, which activities characterize a compounds ability to elicit an antipsychotic effect.

dopamine D2 receptor [2] = molecular target: T2, dopamine D2 receptor; assay: 3H-spiroperidol (Spiper.) binding, affinity for the dopamine D-2 receptor, homogenized limbic brain tissue; parameters: homogenized limbic brain tissue; from tissue; host or cells: limbic brain tissue, homogenized

IC50 (dopamine autoreceptor) | Ratio Ant/Ag (dopamine D2 receptor [1]) | IC50 (dopamine D2 receptor [2]) | Compound | IC50 (α1)
733 nM | 32 | 23600 nM | CCCCNCC1CCc2ccc(OC)cc2O1 (centres unmarked) | –
831 nM | 32 | 26500 nM | COc1ccc2c(c1)OC(CNCCC(C)C)CC2 (centres unmarked) | –

The remaining lines, values behind:

Compound | IC50 (dopamine autoreceptor) | Ratio Ant/Ag (dopamine D2 receptor [1]) | IC50 (dopamine D2 receptor [2]) | IC50 (α1)
CCCNCC1CCc2ccc(O)cc2O1 (centres unmarked) | – | – | – | 1160 nM
CCCCCCNCC1CCc2ccc(O)cc2O1 (centres unmarked) | – | – | – | 221 nM
CCCN(CCC)CC1CCc2ccc(O)cc2O1 (centres unmarked) | 102 nM | 88 | 8960 nM | –
